Target: T1, Glucocorticoid receptor (Homo sapiens, UniProt P04150)
T1 sequence (P04150 whole entry): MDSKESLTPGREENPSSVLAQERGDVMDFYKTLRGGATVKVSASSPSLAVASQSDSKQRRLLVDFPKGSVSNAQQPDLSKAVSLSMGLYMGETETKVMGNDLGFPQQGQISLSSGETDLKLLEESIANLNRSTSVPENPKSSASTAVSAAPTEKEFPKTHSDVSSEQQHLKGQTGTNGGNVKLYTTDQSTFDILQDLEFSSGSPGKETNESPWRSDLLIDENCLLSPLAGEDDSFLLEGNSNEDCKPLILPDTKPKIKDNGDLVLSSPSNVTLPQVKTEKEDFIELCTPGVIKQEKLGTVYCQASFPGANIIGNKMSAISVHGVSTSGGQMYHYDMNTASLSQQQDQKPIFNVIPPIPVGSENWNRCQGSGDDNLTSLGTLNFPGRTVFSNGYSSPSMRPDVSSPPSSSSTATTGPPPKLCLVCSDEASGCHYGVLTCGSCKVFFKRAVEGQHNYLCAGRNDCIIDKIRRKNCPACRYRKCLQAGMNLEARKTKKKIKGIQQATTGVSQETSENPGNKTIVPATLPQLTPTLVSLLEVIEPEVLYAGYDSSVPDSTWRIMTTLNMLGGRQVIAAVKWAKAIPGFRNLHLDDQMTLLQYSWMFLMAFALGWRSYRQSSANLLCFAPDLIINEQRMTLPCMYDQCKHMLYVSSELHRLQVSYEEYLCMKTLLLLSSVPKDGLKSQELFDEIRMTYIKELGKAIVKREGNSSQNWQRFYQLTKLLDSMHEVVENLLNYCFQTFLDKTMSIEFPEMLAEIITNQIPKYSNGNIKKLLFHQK
Experiment: GR Binding Assay
Procedure: Binding of test compounds to the glucocorticoid receptor (GR) is determined using a fluorescence polarisation (FP) assay utilising a recombinant ligand binding domain (LBD) of GR. The test compounds are assessed by their ability to displace a fluorescently tagged ligand and detection of the resulting decrease in fluorescence polarisation.

Cc1cc2c(cnn2-c2ccc(F)cc2)cc1[C@@]12CN(C(=O)c3nn(C)cc3Cl)C[C@@H]1[C@H]2c1ccccc1 [US20250115583, Example 178]
Ki: 19 nM

Cc1cc2c(cnn2-c2ccc(F)cc2)cc1[C@@]12CN(S(=O)(=O)c3cnn(C)n3)C[C@@H]1[C@H]2C(=O)N1CCC1 [US20250115583, Example 59]
Ki: 360 nM

Source: BindingDB's records for patent US20250115583 (Corcept Therapeutics, 2025)
